Results as given in publication PMC9967051, “(S)-N-Benzyl-1-phenyl-3,4-dihydroisoqunoline-2(1H)-carboxamide Derivatives, Multi-Target Inhibitors of Monoamine Oxidase and Cholinesterase: Design, Synthesis, and Biological Activity” (Molecules, 2023).

Biological target: BChE (Homo sapiens, UniProt P06276)
Assay: biochemical
Conditions: compounds concentration 100 µM; read-out: Inhibition Rate BChE
Protocol: Inhibition of AChE and BChE was measured through the spectrophotometric method developed by Ellman’s method with slight modifications. The analysis protocol contained 96-well plates (100 µL per well). Each well involved 20 µL of assay buffer solution, 20 µL of the test sample, and 40 µL of 0.2 U/mL of AChE or BChE. The mixture was incubated for 10 min at 25 °C followed by the addition of substrate (20 µL). For AChE inhibition assay, acetylthiocholine iodide (ATCI, 0.001 mol/L), while for BChE assay, butyrylthiocholine chloride (BTCCl, 0.001 mol/L) was added to it. The mixture was incubated at 37 °C for 15 min. Ellman reagent (5,5′-dithio-bis(2-nitrobenzoic acid), DTNB, 0.001 mol/L) was added. […] The blank analysis was performed. All the analyses were performed in triplicate. Inhibition rate of experimental sample or positive control group (%) = [(control group-blank background)-(experimental sample or positive control group -sample background)]/(control-blank background) × 100%.

BChE, sequence (P06276 29-602): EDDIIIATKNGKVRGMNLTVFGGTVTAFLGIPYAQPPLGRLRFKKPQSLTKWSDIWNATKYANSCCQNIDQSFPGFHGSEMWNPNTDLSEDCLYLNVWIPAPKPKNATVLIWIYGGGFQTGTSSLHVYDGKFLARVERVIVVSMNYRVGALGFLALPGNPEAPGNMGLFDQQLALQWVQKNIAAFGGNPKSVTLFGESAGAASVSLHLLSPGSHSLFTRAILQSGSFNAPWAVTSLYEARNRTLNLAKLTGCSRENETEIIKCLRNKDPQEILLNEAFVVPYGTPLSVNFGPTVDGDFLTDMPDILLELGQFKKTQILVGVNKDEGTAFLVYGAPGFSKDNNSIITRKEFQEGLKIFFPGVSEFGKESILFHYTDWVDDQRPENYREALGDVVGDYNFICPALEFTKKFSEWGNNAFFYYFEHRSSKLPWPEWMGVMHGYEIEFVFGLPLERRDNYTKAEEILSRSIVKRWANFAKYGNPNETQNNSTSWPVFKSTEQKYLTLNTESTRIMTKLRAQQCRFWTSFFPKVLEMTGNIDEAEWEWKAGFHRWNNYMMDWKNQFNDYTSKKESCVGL

Row | SMILES | inhibition at 100 µM
1 | COc1ccccc1CNC(=O)N1CCc2ccccc2[C@@H]1c1ccccc1 [2s, (S)-N-(o-methoxybenzyl)-1-phenyl-3,4-dihydroisoquinoline-2(1H)-carboxamid] | 39.6%
2 | Cc1cccc(CNC(=O)N2CCc3ccccc3[C@@H]2c2ccccc2)c1 [2q, (S)-N-(m-methylbenzyl)-1-phenyl-3,4-dihydroisoquinoline-2(1H)-carboxamide] | 8.7%
3 | COc1ccc(CNC(=O)N2CCc3ccccc3[C@@H]2c2ccccc2)cc1OC [2w, (S)-N-(3,4-dimethoxybenzyl)-1-phenyl-3,4-dihydroisoquinoline-2(1H)-carboxamide] | 9.4%
4 | O=C(NCc1cccc(C(F)(F)F)c1)N1CCc2ccccc2C1c1ccccc1 (stereo in doubt) [2l, (S)-N-(m-(trifluoromethyl)benzyl)-1-phenyl-3,4-dihydroisoquinoline-2(1H)-carbox-amide] | 49.1%
5 | N#Cc1ccc(CNC(=O)N2CCc3ccccc3[C@@H]2c2ccccc2)cc1 [2ac, (S)-N-(p-cyanobenzyl)-1-phenyl-3,4-dihydroisoquinoline-2(1H)-carboxamide] | 17.7%
6 | O=C(NCc1cccc(Cl)c1)N1CCc2ccccc2[C@@H]1c1ccccc1 [2f, (S)-N-(m-chlorobenzyl)-1-phenyl-3,4-dihydroisoquinoline-2(1H)-carboxamide] | 3.4%
7 | COc1ccc(CNC(=O)N2CCc3ccccc3[C@@H]2c2ccccc2)cc1 [2u, (S)-N-(p-methoxybenzyl)-1-phenyl-3,4-dihydroisoquinoline-2(1H)-carboxamide] | 40.7%

Test system: MAO
Assay: MAO activity assay (total MAO)
Format: biochemical
Conditions: not given
Protocol: The enzyme activity analysis was performed according to the procedure reported by Matsumoto et al. with slight modifications. All materials used in the enzymatic assays were purchased from Aladdin Reagent Chemicals. […] The concentrations of the synthesized compounds altered from 0.001 µM to 100 µM for the MAO-A and -B enzyme activity inhibition. […] The enzymatic reactions were caused by the addition of MAO-A (40 µg/mL) or MAO-B (20 µg/mL), and cultured at 37 °C for 30 min. The enzyme reactions were stopped through the addition of 2N NaOH for 75 µL. […] The inhibitory effect of enzyme activity was calculated as a percentage of product formation compared to the corresponding control with no inhibitor. A control was established to determine the interference of the tested compounds to the fluorescence assay, and the enzyme or substrate was added after the reaction stopped.

Row | SMILES | IC50
8 | C#CCN[C@@H]1CCc2ccccc21 [Rasagiline, reference compound] | 338 nM

Same assay, conditions: compounds concentration 100 µM

Row | SMILES | Inhibition Rate for MAO
9 | O=C(NCc1ccccc1OC(F)(F)F)N1CCc2ccccc2C1c1ccccc1 (stereo in doubt) [2n, (S)-N-(o-(trifluoromethoxy)benzyl)-1-phenyl-3,4-dihydroisoquinoline-2(1H)-carbox-amide] | 33.0%
10 | O=C(NCc1ccc(Cl)cc1Cl)N1CCc2ccccc2[C@@H]1c1ccccc1 [2x, (S)-N-(2,4-dichlorobenzyl)-1-phenyl-3,4-dihydroisoquinoline-2(1H)-carboxamide] | 44.7%
11 | O=C(NCc1ccc(F)cc1F)N1CCc2ccccc2[C@@H]1c1ccccc1 [2aa, (S)-N-(2,4-difluorobenzyl)-1-phenyl-3,4-dihydroisoquinoline-2(1H)-carboxamide] | 32.1%
12 | C#CCN[C@@H]1CCc2ccccc21 [Rasagiline, reference compound] | 91.75%
13 | O=C(NCc1ccc(Cl)cc1)N1CCc2ccccc2[C@@H]1c1ccccc1 [2g, (S)-N-(p-chlorobenzyl)-1-phenyl-3,4-dihydroisoquinoline-2(1H)-carboxamide] | 21.2%
14 | O=C(NCc1ccccc1Cl)N1CCc2ccccc2[C@@H]1c1ccccc1 [2e, (S)-N-(o-chlorobenzyl)-1-phenyl-3,4-dihydroisoquinoline-2(1H)-carboxamide] | 41.4%
15 | O=C(NCc1c(Cl)cccc1Cl)N1CCc2ccccc2[C@@H]1c1ccccc1 [2y, (S)-N-(2,6-dichlorobenzyl)-1-phenyl-3,4-dihydroisoquinoline-2(1H)-carboxamide] | 37.7%
16 | O=C(NCc1ccc(OC(F)(F)F)cc1)N1CCc2ccccc2C1c1ccccc1 (stereo in doubt) [2o, (S)-N-(p-(trifluoromethoxy)benzyl)-1-phenyl-3,4-dihydroisoquinoline-2(1H)-carbox-amide] | 31.1%
17 | O=C(NCc1ccc(C(F)(F)F)cc1)N1CCc2ccccc2C1c1ccccc1 (stereo in doubt) [2m, (S)-N-(p-(trifluoromethyl)benzyl)-1-phenyl-3,4-dihydroisoquinoline-2(1H)-carboxa-mide] | 35.8%
18 | O=C(NCc1ccccc1C(F)(F)F)N1CCc2ccccc2C1c1ccccc1 (stereo in doubt) [2k, (S)-N-(o-(trifluoromethyl)benzyl)-1-phenyl-3,4-dihydroisoquinoline-2(1H)-carboxa-mide] | 33.0%
